The target in this assay is T1, E. coli thymidylate kinase (TMPK) (Escherichia coli, UniProt P0A720).
T1 sequence (P0A720 1-213): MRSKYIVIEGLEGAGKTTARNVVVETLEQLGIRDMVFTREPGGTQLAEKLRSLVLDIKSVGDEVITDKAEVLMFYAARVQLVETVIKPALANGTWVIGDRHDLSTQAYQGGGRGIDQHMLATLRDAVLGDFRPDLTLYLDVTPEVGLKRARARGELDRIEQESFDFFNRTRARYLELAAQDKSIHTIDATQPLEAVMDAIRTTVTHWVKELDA
The experiment in a line: ATPlite luminescence assay, direction of ATP synthesis. Format: biochemical.

pIC50: −log10 of the molar value.

What is called pIC50 is −log10 of the IC50, conventionally taken in molar units. `COc1ccc(C=C2SC(=S)NC2=O)cc1O` [compound 2] gave a pIC50 of 5.60. Regarding `COc1cc(C=C2SC(=S)NC2=O)ccc1OC(C)=O` [compound 11], the pIC50 is 6.32. As for `CCOC(=O)COc1ccc(C=C2SC(=S)NC2=O)cc1OC` [compound 31], the figure is 6.17; as for `COc1cc(C=C2SC(=S)NC2=O)ccc1OC(C)C` [compound 1], 6.41.

Take `COc1cc(C=C2SC(=S)NC2=O)cc(OC)c1O` [compound 27]: the pIC50 is 6.60.

As to `CCOc1ccc(C=C2SC(S)=NC2=O)cc1OC` [compound 9], the pIC50 is 6.39.

Compound `C=CCOc1cccc(C=C2SC(=S)NC2=O)c1` [compound 13] showed a pIC50 of 6.00. As for `CCOc1cc(C=C2SC(=S)NC2=O)ccc1OC(C)=O` [compound 28], the figure is 6.33; as for `COc1cc(C=C2SC(=S)NC2=O)ccc1O` [compound 12], 6.30.

The values are drawn from paper doi:10.1101/2021.02.22.432404v1 (biorxiv, 2021).
